In patent US8980888B2, “Pyrazole derivative” (Mochida Pharmaceutical Co., Ltd., priority 2013, dated 2015):

Columns and labels:
[1] = test system: dopamine level in the rat brain; conditions: according to U.S. Patent Application No. 2003/0032579; cited from earlier work
[2] = test system: haloperidol-induced catalepsy; conditions: rat; according to U.S. Patent Application No. 2003/0032579; cited from earlier work
[3] = test system: apomorphine-induced stereotypy; conditions: rats; according to U.S. Patent Application No. 2003/0032579; cited from earlier work
Human PDE10 = target: T1, Human PDE10 (Homo sapiens, UniProt Q9Y233); experiment: Human PDE10 inhibitory effect (IMAP TR-FRET enzyme inhibition assay); format: biochemical; conditions: PDE10 inhibitory activity, cAMP substrate
T1 construct: purchased BPA Bioscience (so in the source)
Summary of the method: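 Human PDE10 solution (2 ng/mL) was preincubated with compound for 5 min at room temperature in Tris-HCl pH 7.2, 10 mM MgCl2 and 0.1% BSA. cAMP substrate solution (400 nM) was then added for 60 min, followed by IMAP TR-FRET binding for ≥3 h. The 5′-AMP formed was read at ex 340 nm and em 490/520 nm, with solvent wells set at 0% and no-enzyme wells at 100%; IC50 was derived.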

T1 sequence (Q9Y233 whole entry): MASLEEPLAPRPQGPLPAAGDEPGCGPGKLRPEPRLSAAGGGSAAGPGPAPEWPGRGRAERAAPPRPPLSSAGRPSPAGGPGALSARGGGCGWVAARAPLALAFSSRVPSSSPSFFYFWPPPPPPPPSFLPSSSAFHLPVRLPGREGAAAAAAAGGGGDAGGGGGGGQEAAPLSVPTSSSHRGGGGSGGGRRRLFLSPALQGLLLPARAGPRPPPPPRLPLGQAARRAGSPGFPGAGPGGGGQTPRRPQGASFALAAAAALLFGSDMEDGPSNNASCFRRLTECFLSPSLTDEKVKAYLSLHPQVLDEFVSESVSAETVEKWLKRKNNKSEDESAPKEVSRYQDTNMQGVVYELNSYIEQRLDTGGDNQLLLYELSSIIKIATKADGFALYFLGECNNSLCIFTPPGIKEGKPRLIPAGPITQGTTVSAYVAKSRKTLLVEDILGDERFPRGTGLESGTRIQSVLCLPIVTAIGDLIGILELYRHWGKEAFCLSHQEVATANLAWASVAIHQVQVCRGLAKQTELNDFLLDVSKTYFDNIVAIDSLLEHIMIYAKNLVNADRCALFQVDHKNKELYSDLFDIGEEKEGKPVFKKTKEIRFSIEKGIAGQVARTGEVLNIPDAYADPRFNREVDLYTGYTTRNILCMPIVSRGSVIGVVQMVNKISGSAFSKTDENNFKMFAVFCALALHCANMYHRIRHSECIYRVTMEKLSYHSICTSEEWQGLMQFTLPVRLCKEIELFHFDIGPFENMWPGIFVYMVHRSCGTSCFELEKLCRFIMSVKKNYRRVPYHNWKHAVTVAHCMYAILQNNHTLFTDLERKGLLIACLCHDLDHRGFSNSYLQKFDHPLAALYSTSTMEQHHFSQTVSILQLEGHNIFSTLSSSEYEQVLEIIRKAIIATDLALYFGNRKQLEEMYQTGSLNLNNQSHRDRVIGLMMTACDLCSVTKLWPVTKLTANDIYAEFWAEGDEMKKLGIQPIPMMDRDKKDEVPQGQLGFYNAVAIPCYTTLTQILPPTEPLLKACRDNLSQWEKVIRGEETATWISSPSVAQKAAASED

Compound | IC50 (Human PDE10) | further results
COc1ccc(Cc2nccc3cc(OC)c(OC)cc23)cc1OC [papaverine] |  | dopamine level in the rat brain [1]: decreases; haloperidol-induced catalepsy [2]: increases; apomorphine-induced stereotypy [3]: decreases
Cc1cccc(-c2cnn(C)c2C(=O)NC2CCn3nc(N4CCCC4)nc3C2)n1 (centres unmarked) [Example 5.47, 1-methyl-4-(6-methylpyridin-2-yl)-N-(2-(pyrrolidin-1-yl)-5,6,7,8-tetrahydro-[1,2,4]triazolo[1,5-a]pyridin-7-yl)-1H-pyrazole-5-carboxamide] | 5 to 100 nM | 

The next lines start with results.

IC50 (Human PDE10) | Compound | further results
< 5 nM | Cc1cccc(-c2cnn(C)c2C(=O)Nc2cc3nc(-c4ccccc4)nn3cc2F)n1 [Example 3.3, N-(6-fluoro-2-phenyl-[1,2,4]triazolo[1,5-a]pyridin-7-yl)-1-methyl-4-(6-methylpyridin-2-yl)-1H-pyrazole-5-carboxamide] | 
5 to 100 nM | Cc1cccc(-c2cnn(C)c2C(=O)NC2CCn3nc(-c4ccccc4)nc3C2)n1 (centres unmarked) [Example 5.19, 1-methyl-4-(6-methylpyridin-2-yl)-N-(2-phenyl-5,6,7,8-tetrahydro-[1,2,4]triazolo[1,5-a]pyridin-7-yl)-1H-pyrazole-5-carboxamide] | 
5 to 100 nM | Cc1ccnc(-c2cnn(C)c2C(=O)NC2CCn3nc(-c4ccccc4)nc3C2)c1 (centres unmarked) [Example 5.20, 1-methyl-4-(4-methylpyridin-2-yl)-N-(2-phenyl-5,6,7,8-tetrahydro-[1,2,4]triazolo[1,5-a]pyridin-7-yl)-1H-pyrazole-5-carboxamide] | 
< 5 nM | Cc1sc(-c2cnn(C)c2C(=O)NC2CCn3cc(-c4cccc(F)c4)nc3C2)nc1C(F)F (centres unmarked) [Example 2.7, 4-(4-(difluoromethyl)-5-methylthiazol-2-yl)-N-(2-(3-fluorophenyl)-5,6,7,8-tetrahydroimidazo[1,2-a]pyridin-7-yl)-1-methyl-1H-pyrazole-5-carboxamide] | 
